Data published in patent US20240408169A1 (priority 2023, published 2024).
Read-outs that look alike come from different tables or passages of the source. *1 amine or outer side, *2 acyl side, *3 side chain or, on linkers, in order; H or OH if unused. Where a SMILES comes first, the peptide text is derived from it. Bridges are numbered along the chain shown (N, C = ends). [ ]: non-standard residue; d: D form. The star is where a group is joined. X10 = CC(C)C(=O)N1[C@H]2COC[C@@H]1C=C(c1ccc(Cl)cc1C[C@@H](C(=O)[*:2])N(C)[*:1])C2; X74 = C[C@@H]1CN(c2ccc(-c3ccc(Cl)cc3C[C@@H](C(=O)[*:2])N(C)[*:1])cc2)C[C@@H](C)O1; X70 = CN1CCC[C@@H](c2ccc(-c3ccc(Cl)cc3C[C@@H](C(=O)[*:2])N(C)[*:1])cc2)C1; X95 = CN1CCCC[C@H]1c1ccc(-c2ccc(Cl)cc2C[C@@H](C(=O)[*:2])N(C)[*:1])cc1; NMeAla(5-Cl-2-cPrO-3-pyridyl) = CN[C@@H](Cc1cc(Cl)cnc1OC1CC1)C(=O)O; X32 = CN([C@@H](Cc1cc(Cl)ccc1-c1ccc(N2CCOCC2=O)cc1)C(=O)[*:2])[*:1]; X115 = CN([C@@H](Cc1cc(Cl)ccc1-c1ccc(N2CCNCC2)cc1)C(=O)[*:2])[*:1]; X93 = CN([C@@H](Cc1cc(Cl)ccc1-c1ccc(OC2CCOCC2)cc1)C(=O)[*:2])[*:1]; X24 = CN([C@@H](Cc1cc(Cl)ccc1-c1cnn(C(C)(C)C)c1)C(=O)[*:2])[*:1]; X30 = CN([C@@H](Cc1cc(Cl)ccc1-c1ccc2c(c1)ncn2C)C(=O)[*:2])[*:1]; X68 = CN([C@@H](Cc1cc(Cl)ccc1-c1cnn(C2CC2)c1)C(=O)[*:2])[*:1]; NMehhhLys(Me) = CN([C@@H](CCCCCCCN(C)[*:3])C(=O)[*:2])[*:1]; NMe(hhhLys) = CN([C@@H](CCCCCCCN[*:3])C(=O)[*:2])[*:1]; Cyclobutanecarbonyl(1-CF3) = O=C(C1(C(F)(F)F)CCC1)*; cBuCO(3,3-F2-1-CF3) = O=C(C1(C(F)(F)F)CC(F)(F)C1)*; Pro(trans-4-F) = O=C(O)[C@@H]1C[C@@H](F)CN1; Gly(cPr) = N[C@H](C(=O)O)C1CC1

How the values were obtained:
CyclinE1/CDK2 = molecular target: T1, CyclinE1/CDK2 (Homo sapiens, UniProt P24864); assay: Fluorescence Polarization (FP) competitive binding assay, Cyclin E1/Cdk2;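 also: readings taken after two-hour equilibration at room temperature in HEPES buffer with NaCl, DTT, NP-40 and BSA, IC50 fitted from eight-concentration serial dilution series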
T1 construct: purchased Eurofins, discovery 14-475

CyclinB1/CDK1 = molecular target: T2, CyclinB1/CDK1 (Homo sapiens, UniProt P14635); assay: Fluorescence Polarization (FP) competitive binding assay, Cyclin B1/Cdk1;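 also: fluorescence polarization read after equilibration at room temperature, with IC50 taken from serially diluted dose-response curves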
T2 construct: purchased Eurofins, discovery 14-450

WI-38 cells = assay: MTT proliferation assay, WI-38; assay type: cell-based; details: 3 days compound exposure, 1:3 serial dilution starting at 10 μM;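 also: Eight- or ten-point dilution series, with exposure length chosen to span about three to four cell doublings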
OVCAR3 cells = assay: MTT proliferation assay, OVCAR3; assay type: cell-based; details: 5 days compound exposure, 1:3 serial dilution starting at 10 μM;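 also: compound given as an 8- or 10-point series, one day after plating, with exposure covering roughly 3-4 cell doublings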
NCI-H1048 cells = assay: MTT proliferation assay, NCI-H1048; assay type: cell-based; details: 5 days compound exposure, 1:3 serial dilution starting at 10 μM;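 also: Dose-response in 96-well plates over 8 or 10 concentration points, with exposure spanning 3-4 cell doublings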
CyclinA2/CDK2 = molecular target: T3, CyclinA2/CDK2 (Homo sapiens, UniProt P20248); assay: Fluorescence Polarization (FP) competitive binding assay, Cyclin A2/Cdk2;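 also: plates equilibrated two hours at room temperature before polarization reading, IC50 fitted from eight-concentration compound titration curves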
T3 construct: purchased CRELUX Protein Services

[1] = 10 nM Cyclin E1/Cdk2, 2 nM FAM probe, average of 2-3 independent experiments, read-out: Cyclin E FP IC50
[2] = 10 nM Cyclin B1/Cdk1, 2 nM FAM probe; average of 2-3 independent experiments; read-out: Cyclin B FP IC50
[3] = 8 nM Cyclin A2/Cdk2, 2 nM FAM probe, average of 2-3 independent experiments, read-out: Cyclin A FP IC50

Compound | IC50 (CyclinE1/CDK2; [1]) [µM] | IC50 (CyclinB1/CDK1; [2]) [µM] | GI50 (WI-38 cells) [µM] | GI50 (OVCAR3 cells) [µM] | GI50 (NCI-H1048 cells) [µM] | IC50 (CyclinA2/CDK2; [3]) [µM] | IC50 (CyclinE1/CDK2) [µM] | IC50 (CyclinB1/CDK1; read-out: Cyclin B FP IC50; 10 nM Cyclin B1/Cdk1, 2 nM FAM probe; average of 2-3 independent experiments) [µM] | IC50 (CyclinA2/CDK2) [µM]
CC(C)C[C@@H]1NC(=O)[C@@H](N(C)C(=O)[C@@H](NC(=O)[C@@H]2C[C@@H](F)CN2C(=O)C2(C(F)(F)F)CCC2)C2CC2)CCCCCCCN(C)C(=O)[C@H](Cc2cc(Cl)cnc2OC2CC2)N(C)C1=O [Example 109] ({Cyclobutanecarbonyl(1-CF3)}-[Pro(trans-4-F)][Gly(cPr)][NMehhhLys(Me)]L[NMeAla(5-Cl-2-cPrO-3-pyridyl)]; lactam 3-C) | 0.17 | 0.02 | 9.52 | 0.02 | 0.02 | 0.04 |  |  | 
CC(C)C[C@@H]1NC(=O)[C@@H](N(C)C(=O)[C@@H](NC(=O)[C@@H]2C[C@@H](F)CN2C(=O)C2(C(F)(F)F)CC(F)(F)C2)C2CC2)CCCCCCCN(C)C(=O)[C@H](Cc2cc(Cl)ccc2-c2ccc3c(c2)ncn3C)N(C)C1=O [Example 251] ({cBuCO(3,3-F2-1-CF3)}-[Pro(trans-4-F)][Gly(cPr)][NMehhhLys(Me)]L[X30]; lactam 3-C) |  |  | 13.9 | 0.01 | 0.01 |  | 0.93 | 0.02 | 0.04
CC(C)C[C@@H]1NC(=O)[C@@H](N(C)C(=O)[C@@H](NC(=O)[C@@H]2C[C@@H](F)CN2C(=O)C2(C(F)(F)F)CC(F)(F)C2)C2CC2)CCCCCCCN(C)C(=O)[C@H](Cc2cc(Cl)ccc2-c2ccc(N3CCOCC3=O)cc2)N(C)C1=O [Example 408] ({cBuCO(3,3-F2-1-CF3)}-[Pro(trans-4-F)][Gly(cPr)][NMehhhLys(Me)]L[X32]; lactam 3-C) | 0.51 | 0.02 | 5.53 | 0.01 | 0.01 | 0.02 |  |  | 
CC(C)C[C@@H]1NC(=O)[C@@H](N(C)C(=O)[C@@H](NC(=O)[C@@H]2C[C@@H](F)CN2C(=O)C2(C(F)(F)F)CC(F)(F)C2)C2CC2)CCCCCCCN(C)C(=O)[C@H](Cc2cc(Cl)ccc2-c2cnn(C(C)(C)C)c2)N(C)C1=O [Example 187] ({cBuCO(3,3-F2-1-CF3)}-[Pro(trans-4-F)][Gly(cPr)][NMehhhLys(Me)]L[X24]; lactam 3-C) | 0.34 | 0.02 | 8.66 | 0.01 | 0.01 | 0.02 |  |  | 
CC(C)C[C@@H]1NC(=O)[C@@H](N(C)C(=O)[C@@H](NC(=O)[C@@H]2C[C@@H](F)CN2C(=O)C2(C(F)(F)F)CC(F)(F)C2)C2CC2)CCCCCCCN(C)C(=O)[C@H](Cc2cc(Cl)ccc2-c2ccc([C@@H]3CCCN(C)C3)cc2)N(C)C1=O [Example 411] ({cBuCO(3,3-F2-1-CF3)}-[Pro(trans-4-F)][Gly(cPr)][NMehhhLys(Me)]L[X70]; lactam 3-C) | 0.76 | 0.02 | 1.61 | 0.01 | 0.01 | 0.02 |  |  | 
CC(C)C[C@@H]1NC(=O)[C@@H](N(C)C(=O)[C@@H](NC(=O)[C@@H]2C[C@@H](F)CN2C(=O)C2(C(F)(F)F)CC(F)(F)C2)C2CC2)CCCCCCCN(C)C(=O)[C@H](Cc2cc(Cl)ccc2-c2ccc(OC3CCOCC3)cc2)N(C)C1=O [Example 340] ({cBuCO(3,3-F2-1-CF3)}-[Pro(trans-4-F)][Gly(cPr)][NMehhhLys(Me)]L[X93]; lactam 3-C) | 1.65 | 0.02 | 17.3 | 0.02 | 0.02 | 0.02 |  |  | 
CC(C)C[C@@H]1NC(=O)[C@@H](N(C)C(=O)[C@@H](NC(=O)[C@@H]2C[C@@H](F)CN2C(=O)C2(C(F)(F)F)CC(F)(F)C2)C2CC2)CCCCCCCN(C)C(=O)[C@H](Cc2cc(Cl)ccc2-c2ccc(N3C[C@@H](C)O[C@H](C)C3)cc2)N(C)C1=O [Example 389] ({cBuCO(3,3-F2-1-CF3)}-[Pro(trans-4-F)][Gly(cPr)][NMehhhLys(Me)]L[X74]; lactam 3-C) | 0.79 | 0.02 | 17.6 | 0.01 | 0.02 | 0.02 |  |  | 
COCCn1cc(-c2ccc(Cl)cc2C[C@H]2C(=O)N(C)CCCCC=CC[C@H](N(C)C(=O)[C@@H](NC(=O)[C@@H]3C[C@@H](F)CN3C(=O)C3(C(F)(F)F)CC(F)(F)C3)C3CC3)C(=O)N[C@@H](CC(C)C)C(=O)N2C)cn1 [Example 44] | 0.27 | 0.02 | 6.6 | 0.04 | 0.02 | 0.03 |  |  | 
CC(C)C[C@@H]1NC(=O)[C@@H](N(C)C(=O)[C@@H](NC(=O)[C@@H]2C[C@@H](F)CN2C(=O)C2(C(F)(F)F)CC(F)(F)C2)C2CC2)CCCCCCCN(C)C(=O)[C@H](Cc2cc(Cl)ccc2-c2ccc(N3CCNCC3)cc2)N(C)C1=O [Example 341] ({cBuCO(3,3-F2-1-CF3)}-[Pro(trans-4-F)][Gly(cPr)][NMehhhLys(Me)]L[X115]; lactam 3-C) | 0.51 | 0.02 | 2.44 | 0.01 | 0.01 | 0.02 |  |  | 
CC(C)C[C@@H]1NC(=O)[C@@H](N(C)C(=O)[C@@H](NC(=O)[C@@H]2C[C@@H](F)CN2C(=O)C2(C(F)(F)F)CC(F)(F)C2)C2CC2)CCCCCCCNC(=O)[C@H](Cc2cc(Cl)ccc2C2=C[C@H]3COC[C@@H](C2)N3C(=O)C(C)C)N(C)C1=O [Example 327] ({cBuCO(3,3-F2-1-CF3)}-[Pro(trans-4-F)][Gly(cPr)][NMe(hhhLys)]L[X10]; lactam 3-C) | 0.4 | 0.02 | 83.9 | 0.01 | 0.01 | 0.02 |  |  | 
CC(C)C[C@@H]1NC(=O)[C@@H](N(C)C(=O)[C@H](CCC(=O)N2CCN(C)CC2)NC(=O)[C@@H]2C[C@@H](F)CN2C(=O)C2(C(F)(F)F)CC(F)(F)C2)CCCCCCCN(C)C(=O)[C@H](Cc2cc(Cl)ccc2-c2ccc(N3CCOCC3)cc2)N(C)C1=O [Example 420] | 0.19 | 0.02 | 3.51 | 0.02 | 0.01 | 0.02 |  |  | 
CC(C)C[C@@H]1NC(=O)[C@@H](N(C)C(=O)[C@@H](NC(=O)[C@@H]2C[C@@H](F)CN2C(=O)C2(C(F)(F)F)CC(F)(F)C2)C2CC2)CC=CCCCCN(C)C(=O)[C@H](Cc2cc(F)ccc2C2=CCC(O)CC2)N(C)C1=O (stereo partly drawn) [Example 47] | 0.8 | 0.02 | 12.9 | 0.13 | 0.03 | 0.04 |  |  | 
CC(C)C[C@@H]1NC(=O)[C@@H](N(C)C(=O)[C@@H](NC(=O)[C@@H]2C[C@@H](F)CN2C(=O)C2(C(F)(F)F)CC(F)(F)C2)C2CC2)CCCCCCCN(C)C(=O)[C@H](Cc2cc(Cl)ccc2-c2ccc([C@@H]3CCCCN3C)cc2)N(C)C1=O [Example 417] ({cBuCO(3,3-F2-1-CF3)}-[Pro(trans-4-F)][Gly(cPr)][NMehhhLys(Me)]L[X95]; lactam 3-C) | 2.65 | 0.02 | 1.16 | 0.01 | 0.01 | 0.03 |  |  | 
CC(C)C[C@@H]1NC(=O)[C@@H](N(C)C(=O)[C@@H](NC(=O)[C@@H]2C[C@@H](F)CN2C(=O)C2(C(F)(F)F)CCC2)C2CC2)CCCCCCCNC(=O)[C@H](Cc2cc(Cl)ccc2-c2cnn(C3CC3)c2)N(C)C1=O [Example 188] ({Cyclobutanecarbonyl(1-CF3)}-[Pro(trans-4-F)][Gly(cPr)][NMe(hhhLys)]L[X68]; lactam 3-C) | 0.23 | 0.02 | 3.08 | 0.02 | 0.01 | 0.02 |  |  | 
